The OligoGym collection
Oligonucleotides are written 5' to 3', each unit as a sugar letter and its base; * is a phosphorothioate linkage, no mark a phosphodiester; rarer units and linkages stand in square brackets, end groups in braces. Plain capitals give the bases only. d = 2'-deoxy (DNA); r = 2'-OH (RNA)

Molecular target: UBE2H
Experiment: reporter assay of Huesken 2005
Settings: siRNA
Further: test concentration or dose not given here.

Substance	normalised inhibition (eCFP-eYFP dual reporter)
sense rArGrUrGrArArGrUrUrUrUrArUrGrGrArCrCrAdTdT / antisense rUrGrGrUrCrCrArUrArArArArCrUrUrCrArCrUdAdC	95.5%
sense rArGrUrGrGrArCrCrUrArCrCrUrGrArUrArArAdTdT / antisense rUrUrUrArUrCrArGrGrUrArGrGrUrCrCrArCrUdCdT	108%
sense rArUrArCrCrCrUrUrUrCrArArArUrCrUrCrCrAdTdT / antisense rUrGrGrArGrArUrUrUrGrArArArGrGrGrUrArUdTdT	99.2%
sense rArUrArGrGrArUrUrCrArUrGrArArUrArArArAdTdT / antisense rUrUrUrUrArUrUrCrArUrGrArArUrCrCrUrArUdAdG	106%
sense rArUrCrGrArGrArGrUrArArArCrArUrGrArGrGdTdT / antisense rCrCrUrCrArUrGrUrUrUrArCrUrCrUrCrGrArUdGdA	71.1%
sense rArUrCrUrArUrArGrGrArUrUrCrArUrGrArArUdTdT / antisense rArUrUrCrArUrGrArArUrCrCrUrArUrArGrArUdGdG	95.3%
sense rArUrGrArGrGrUrUrArCrGrArUrCrCrUrGrGrGdTdT / antisense rCrCrCrArGrGrArUrCrGrUrArArCrCrUrCrArUdGdT	77.7%
sense rArUrGrGrArCrCrArCrArArGrGrArArCrArCrCdTdT / antisense rGrGrUrGrUrUrCrCrUrUrGrUrGrGrUrCrCrArUdAdA	34%
sense rArUrGrGrUrGrArCrGrCrUrGrCrArGrCrCrArUdTdT / antisense rArUrGrGrCrUrGrCrArGrCrGrUrCrArCrCrArUdTdG	86.6%
sense rArUrUrGrGrCrCrUrArUrCrCrUrArArCrCrCrCdTdT / antisense rGrGrGrGrUrUrArGrGrArUrArGrGrCrCrArArUdAdA	36.2%
sense rArUrUrUrGrArGrUrCrCrUrUrCrCrUrGrCrCrUdTdT / antisense rArGrGrCrArGrGrArArGrGrArCrUrCrArArArUdAdT	48.2%
sense rCrArArGrGrArArCrArCrCrArUrArUrGrArArGdTdT / antisense rCrUrUrCrArUrArUrGrGrUrGrUrUrCrCrUrUrGdTdG	99.5%
sense rCrArArUrArUrArUrUrUrGrArGrUrCrCrUrUrCdTdT / antisense rGrArArGrGrArCrUrCrArArArUrArUrArUrUrGdGdT	84.2%
sense rCrArGrArArArArUrUrArArArGrArGrUrArCrAdTdT / antisense rUrGrUrArCrUrCrUrUrUrArArUrUrUrUrCrUrGdCdT	78.6%
sense rCrArGrArArGrArArUrArCrArArGrCrArGrArAdTdT / antisense rUrUrCrUrGrCrUrUrGrUrArUrUrCrUrUrCrUrGdGdT	77.7%
sense rCrArGrCrCrArUrGrUrArCrCrUrCrCrArCrCrGdTdT / antisense rCrGrGrUrGrGrArGrGrUrArCrArUrGrGrCrUrGdCdA	61.4%
sense rCrArGrGrArArGrArGrGrGrUrArCrCrGrGrGrGdTdT / antisense rCrCrCrCrGrGrUrArCrCrCrUrCrUrUrCrCrUrGdTdT	74.7%
sense rCrArUrCrGrArGrArGrUrArArArCrArUrGrArGdTdT / antisense rCrUrCrArUrGrUrUrUrArCrUrCrUrCrGrArUrGdAdG	70.2%
sense rCrArUrGrArArUrArArArArUrUrUrUrCrCrArUdTdT / antisense rArUrGrGrArArArArUrUrUrUrArUrUrCrArUrGdAdA	64%
sense rCrCrArCrCrGrArCrCrArGrArArGrArArUrArCdTdT / antisense rGrUrArUrUrCrUrUrCrUrGrGrUrCrGrGrUrGrGdAdG	82.5%
sense rCrCrArGrArArGrArArUrArCrArArGrCrArGrAdTdT / antisense rUrCrUrGrCrUrUrGrUrArUrUrCrUrUrCrUrGrGdTdC	104%
sense rCrCrArUrArUrGrArArGrGrCrGrGrArGrUrArUdTdT / antisense rArUrArCrUrCrCrGrCrCrUrUrCrArUrArUrGrGdTdG	102%
sense rCrCrGrArCrCrArGrArArGrArArUrArCrArArGdTdT / antisense rCrUrUrGrUrArUrUrCrUrUrCrUrGrGrUrCrGrGdTdG	86.4%
sense rCrCrUrArArCrCrCrCrArUrArGrArUrCrCrUrCdTdT / antisense rGrArGrGrArUrCrUrArUrGrGrGrGrUrUrArGrGdAdT	66.9%
sense rCrGrArGrArGrUrArArArCrArUrGrArGrGrUrUdTdT / antisense rArArCrCrUrCrArUrGrUrUrUrArCrUrCrUrCrGdAdT	98%
sense rCrGrCrCrArCrGrGrArGrGrArGrGrCrGrCrUrGdTdT / antisense rCrArGrCrGrCrCrUrCrCrUrCrCrGrUrGrGrCrGdTdA	66.8%

Substance	normalised inhibition (eCFP-eYFP dual reporter)
sense rCrGrUrCrArGrGrArArCrUrGrUrGrUrGrUrCrUdTdT / antisense rArGrArCrArCrArCrArGrUrUrCrCrUrGrArCrGdCdT	99.9%
sense rCrUrArUrGrArUrCrUrUrArCrCrArArUrArUrAdTdT / antisense rUrArUrArUrUrGrGrUrArArGrArUrCrArUrArGdAdG	110%
sense rCrUrUrGrGrArCrArGrCrUrCrUrCrUrArUrGrAdTdT / antisense rUrCrArUrArGrArGrArGrCrUrGrUrCrCrArArGdTdT	81%
sense rGrArArCrUrGrUrGrUrGrUrCrUrArGrArUrGrUdTdT / antisense rArCrArUrCrUrArGrArCrArCrArCrArGrUrUrCdCdT	98.4%
sense rGrArArGrArArUrArCrArArGrCrArGrArArArAdTdT / antisense rUrUrUrUrCrUrGrCrUrUrGrUrArUrUrCrUrUrCdTdG	95.1%
sense rGrArArUrArCrArArGrCrArGrArArArArUrUrAdTdT / antisense rUrArArUrUrUrUrCrUrGrCrUrUrGrUrArUrUrCdTdT	93.1%
sense rGrArArUrUrUrGrUrArGrUrGrArArGrUrUrUrUdTdT / antisense rArArArArCrUrUrCrArCrUrArCrArArArUrUrCdAdT	96.7%
sense rGrArCrGrCrUrGrCrArGrCrCrArUrGrUrArCrCdTdT / antisense rGrGrUrArCrArUrGrGrCrUrGrCrArGrCrGrUrCdAdC	55.3%
sense rGrArGrGrUrUrArCrGrArUrCrCrUrGrGrGrArGdTdT / antisense rCrUrCrCrCrArGrGrArUrCrGrUrArArCrCrUrCdAdT	57.3%
sense rGrArGrUrArCrArUrCrCrArGrArArArUrArCrGdTdT / antisense rCrGrUrArUrUrUrCrUrGrGrArUrGrUrArCrUrCdTdT	77.6%
sense rGrArGrUrArUrGrGrArArArGrUrUrArGrArGrUdTdT / antisense rArCrUrCrUrArArCrUrUrUrCrCrArUrArCrUrCdCdG	83.6%
sense rGrArUrArArArUrArCrCrCrUrUrUrCrArArArUdTdT / antisense rArUrUrUrGrArArArGrGrGrUrArUrUrUrArUrCdAdG	102%
sense rGrArUrCrUrUrArCrCrArArUrArUrArUrUrUrGdTdT / antisense rCrArArArUrArUrArUrUrGrGrUrArArGrArUrCdAdT	78.3%
sense rGrGrArGrGrArGrGrCrGrCrUrGrArArArGrArAdTdT / antisense rUrUrCrUrUrUrCrArGrCrGrCrCrUrCrCrUrCrCdGdT	91.9%
sense rGrGrCrGrCrUrGrArArArGrArArCrArGrGrArAdTdT / antisense rUrUrCrCrUrGrUrUrCrUrUrUrCrArGrCrGrCrCdTdC	98.5%
sense rGrGrGrUrArCrCrGrGrGrGrArCrArGrCrUrCrAdTdT / antisense rUrGrArGrCrUrGrUrCrCrCrCrGrGrUrArCrCrCdTdC	71.9%
sense rGrGrUrGrArCrGrCrUrGrCrArGrCrCrArUrGrUdTdT / antisense rArCrArUrGrGrCrUrGrCrArGrCrGrUrCrArCrCdAdT	91%
sense rGrUrCrUrArGrArUrGrUrArArUrUrArArUrCrAdTdT / antisense rUrGrArUrUrArArUrUrArCrArUrCrUrArGrArCdAdC	106%
sense rGrUrGrArArGrUrUrUrUrArUrGrGrArCrCrArCdTdT / antisense rGrUrGrGrUrCrCrArUrArArArArCrUrUrCrArCdTdA	63.8%
sense rGrUrGrGrArCrCrUrArCrCrUrGrArUrArArArUdTdT / antisense rArUrUrUrArUrCrArGrGrUrArGrGrUrCrCrArCdTdC	77.9%
sense rUrArCrCrArArUrArUrArUrUrUrGrArGrUrCrCdTdT / antisense rGrGrArCrUrCrArArArUrArUrArUrUrGrGrUrAdAdG	48.6%
sense rUrArGrArUrGrUrArArUrUrArArUrCrArArArCdTdT / antisense rGrUrUrUrGrArUrUrArArUrUrArCrArUrCrUrAdGdA	46.5%
sense rUrArUrArGrGrArUrUrCrArUrGrArArUrArArAdTdT / antisense rUrUrUrArUrUrCrArUrGrArArUrCrCrUrArUrAdGdA	67.9%
sense rUrArUrCrCrUrArArCrCrCrCrArUrArGrArUrCdTdT / antisense rGrArUrCrUrArUrGrGrGrGrUrUrArGrGrArUrAdGdG	50.2%
sense rUrCrArGrUrUrArUrUrGrGrCrCrUrArUrCrCrUdTdT / antisense rArGrGrArUrArGrGrCrCrArArUrArArCrUrGrAdGdG	66.6%
sense rUrCrArUrCrGrArGrArGrUrArArArCrArUrGrAdTdT / antisense rUrCrArUrGrUrUrUrArCrUrCrUrCrGrArUrGrAdGdC	71.5%
